Source: patent US12281114B2, “NK3 modulators and uses thereof” (Kallyope, Inc., priority 2023, dated 2025)

These compounds were tested against T1, human NK3 (Homo sapiens, UniProt P29371) (assay: FLIPR calcium assay in antagonist mode (NKB EC70 challenge)). Conditions: stable cell line expressing human recombinant NK3; antagonist mode vs EC70 of NKB agonist.
T1 sequence (P29371 1-465): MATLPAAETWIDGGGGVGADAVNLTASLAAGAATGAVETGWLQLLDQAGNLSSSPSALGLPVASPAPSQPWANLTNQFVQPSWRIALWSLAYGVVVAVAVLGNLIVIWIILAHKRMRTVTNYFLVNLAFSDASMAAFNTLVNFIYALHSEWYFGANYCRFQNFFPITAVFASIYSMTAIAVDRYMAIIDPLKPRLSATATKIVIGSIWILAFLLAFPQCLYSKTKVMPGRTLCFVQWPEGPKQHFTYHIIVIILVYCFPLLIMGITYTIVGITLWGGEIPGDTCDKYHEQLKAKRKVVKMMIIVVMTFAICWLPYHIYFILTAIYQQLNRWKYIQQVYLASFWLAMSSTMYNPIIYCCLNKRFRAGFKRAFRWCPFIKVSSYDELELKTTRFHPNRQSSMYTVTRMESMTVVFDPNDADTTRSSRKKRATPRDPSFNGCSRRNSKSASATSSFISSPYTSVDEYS
Format: cell-based
Experimental: Stable Cell Lines: A human recombinant NK3 Tachykinin Receptor stable cell line was purchased from GenScript (Genscript, Cat. #M00201; GenBank Accession Number NM 001059). The cell line was cultured according to manufacturer instructions, using 100 μg/mL Hygromycin B (Invitrogen, Cat. #D2650) for selective pressure. Cells were then collected using 0.05% Trypsin-EDTA (GIBCO, Cat. #25300) and frozen in a freezing media containing 90% FBS (Gibco, Cat. #10099-141) and 10% DMSO (Sigma, Cat. #D2650) at a density of 30×10^6 cells/mL. This bank of assay-ready frozen cells was later used in FLIPR assays to evaluate the potency and efficacy of NK3 antagonist test compounds.
FLIPR Calcium Assay: The FLIPR assay, used to measure changes in intracellular calcium levels, was performed in a 384-well plate format using the FLIPR Calcium 6 assay kit (Molecular Devices, Cat. #R8190). Assay-ready frozen cells expressing human NK3 (Genscript, Cat. #M00201) were thawed, washed, trypsinized, counted using a ViCell, and plated in cell growth media without Hygromycin at a density of […] (40 μL/well).
Calculation of NKB EC70: An EC70 concentration of NKB needed to be determined for competition against test antagonists prior to the compound screen. NKB agonist (Phoenix Pharmaceuticals, Cat. #046-26) was diluted in DMSO at 1800 nM (6-fold the final concentration) and serially diluted to generate a 13-point dose response curve (3-fold serial dilution) using an ECHO. 20 μL of 1× stimulation buffer was added using the BRAVO. 10 μL of DMSO was added while on the FLIPR (described as the first addition), then the RFU signal was measured for 10 minutes. The NKB titration was added to the plate, then the RFU signal was measured for 10 minutes (described as the second addition) on the FLIPR. The EC70 concentration was determined by using a four-parameter fit on GraphPad Prism prior to performing the compound screen.
FLIPR Screen in Antagonist Mode: Test compounds were prepared at 60 μM (6-fold the final concentration) and spotted in 370 nL using the Janus and ECHO. 20 μL of assay buffer was added using the BRAVO. Calcium-sensitive dye was reconstituted in loading buffer (Molecular Devices, Cat. #R8190). Media was removed from the cell plate using a Bluecat Cell Washer, and 40 μL of dye was added to the cell plate using the Apricot. The plate was incubated for 2 hours at 37° C., 5% CO2, then transferred to the FLIPR instrument. 10 μL of compound was added on the FLIPR (described as the first addition), then the RFU signal was measured for 10 minutes. EC70 of NKB agonist was added to the entire plate (described as the second addition), and the RFU signal was measured for 10 minutes on the FLIPR. RFU (relative fluorescence units) signals for first baseline, first peak, second baseline, and second peak were measured using the FLIPR. RFU signal (second peak minus second baseline) for positive (Max, at 10 μM antagonist) and negative (Min, at 0 μM antagonist) controls were used to normalize data and generate values for % Activity. IC50 and efficacy values were determined using a standard curve fitting equation on Dotmatics.
In the case of Cn1cc(-c2cccc(F)c2-c2nc3cc(C(=O)N[C@H]4CC5(C[C@@H](O)C5)C4)ccn3c2Cl)c(F)n1 (stereo partly drawn) [Compound 921, trans 3-chloro-2-(2-fluoro-6-(3-fluoro-1-methyl-1H-pyrazol-4-yl)phenyl)-N-(6-hydroxyspiro[3.3]heptan-2-yl)imidazo[1,2-a]pyridine-7-carboxamide], the IC50 is reported as 0.71 nM.
Cc1nn(C)cc1-c1ccccc1-c1nc2cc(C(=O)N[C@@H]3CO[C@H]4[C@@H]3OC[C@H]4N)ccn2c1Cl [Compound 794] gave an IC50 of 8.45 nM.
With Cc1nn(C)cc1-c1ccccc1-c1nc2cc(C(=O)N[C@H]3C[C@](C)(C(=O)O)C3)ccn2c1C [Compound 317] the IC50 was 7.03 nM.
For Cn1cc(-c2cc(F)cc(F)c2-c2nc3cc(C(=O)N[C@H]4C[C@](O)(CO)C4)ccn3c2Cl)c(F)n1 [Compound 922, 3-chloro-2-(2,4-difluoro-6-(3-fluoro-1-methyl-1H-pyrazol-4-yl)phenyl)-N-((1s,3s)-3-hydroxy-3-(hydroxymethyl)cyclobutyl)imidazo[1,2-a]pyridine-7-carboxamide], the IC50 was 2.83 nM.
For Cc1nn(C)cc1-c1ccccc1-c1nc2cc(C(=O)N3C[C@H](N)[C@@H](O)C3)ccn2c1Cl [Compound 442], the IC50 was 15.1 nM.
With Cc1nn(C)cc1-c1ccccc1-c1nc2cc(C(=O)O)ccn2c1Cl [Compound 436] the IC50 was 67.5 nM.
Cn1cc(-c2cccc(F)c2-c2nc3cc(C(=O)N[C@H]4C[C@](O)(CO)C4)ccn3c2Cl)c(F)n1 [Compound 843] was tested, and the IC50 was 1.08 nM.
Work on Cc1c(-c2ccccc2-c2nc3cc(C(=O)N[C@H]4C[C@@](C)(C(=O)O)C4)ccn3c2C)cnn1C [Compound 295] yielded an IC50 of 131 nM.
For Cc1nn(C)cc1-c1ccccc1-c1nc2cc(C(=O)NCCS(N)(=O)=O)ccn2c1Cl [Compound 614], the IC50 was 2.65 nM.
With Cc1nn(C)cc1-c1ccccc1-c1nc2cc(C(=O)N3C[C@@H]4NCCN[C@@H]4C3)ccn2c1Cl [Compound 798] the IC50 was 22.4 nM.
Cc1nn(C)cc1-c1ccccc1-c1nc2cc(C(=O)N[C@H]3C[C@@H](CO)C3)ccn2c1Cl [Compound 643] gave an IC50 of 1.08 nM.
O=C1N[C@H]2C[C@@H]1N(C(=O)c1ccn3c(Cl)c(-c4ccccc4-c4cnn(C(F)(F)F)c4C(F)(F)F)nc3c1)C2 [Compound 816] showed an IC50 of 8.46 nM.
Cn1cc(-c2cccc(F)c2-c2nc3cc(C(=O)N[C@H]4C[C@@](C)(O)C4)ccn3c2Cl)c(F)n1 [Compound 791, 3-chloro-2-(2-fluoro-6-(3-fluoro-1-methyl-1H-pyrazol-4-yl)phenyl)-N-((1s,3s)-3-hydroxy-3-methylcyclobutyl)imidazo[1,2-a]pyridine-7-carboxamide] showed an IC50 of 0.72 nM.
Cc1nn(C)cc1-c1cccc(F)c1-c1nc2cc(C(=O)N[C@@H]3CO[C@H]4[C@@H]3OC[C@H]4O)ccn2c1C#N [Compound 464] was tested, and the IC50 was 2.9 nM.
Cc1nn(C)cc1-c1cccc(F)c1-c1nc2cc(C(=O)N[C@H]3CO[C@H]4[C@@H]3OC[C@@H]4O)ccn2c1C#N [Compound 775] showed an IC50 of 4.64 nM.
Compound C[C@]1(O)C[C@H](NC(=O)c2ccn3c(Cl)c(-c4ccccc4-c4cnn(C(F)(F)F)c4Cl)nc3c2)C1 [Compound 820] has an IC50 of 0.77 nM.
With Cc1nn(C)cc1-c1ccccc1-c1nc2cc(C(=O)NCCC(C)(C)O)ccn2c1Cl [Compound 459] the IC50 was 1.86 nM.
Work on Cc1nn(C)cc1-c1ccccc1-c1nc2cc(C(=O)NCC34CC(CO)(CCO3)C4)ccn2c1Cl [Compound 624] yielded an IC50 of 0.59 nM.
In the case of Cc1nn(C)cc1-c1ccccc1-c1nc2cc(C(=O)NC[C@H]3CNCCO3)ccn2c1Cl [Compound 461], the IC50 is reported as 3.41 nM.
Cc1nn(C)cc1-c1ccccc1-c1nc2cc(C(=O)N3CCN(C4CCNC4)CC3)ccn2c1Cl (stereo not drawn) [Compound 443] gave an IC50 of 11.3 nM.
With O=C(NC1CS(=O)(=O)C1)c1ccn2c(Cl)c(-c3c(F)cc(F)cc3-c3c[nH]nc3F)nc2c1 [Compound 830] the IC50 was 6.63 nM.
Work on Cn1cc(-c2ccc(F)c(F)c2-c2nc3cc(C(=O)NC45COC(C)(C4)C5)ccn3c2C#N)c(F)n1 [Compound 932, 3-cyano-2-(2,3-difluoro-6-(3-fluoro-1-methyl-1H-pyrazol-4-yl)phenyl)-N-(1-methyl-2-oxabicyclo[2.1.1]hexan-4-yl)imidazo[1,2-a]pyridine-7-carboxamide] yielded an IC50 of 6.09 nM.
C[C@H]1C[C@H](NC(=O)c2ccn3c(Cl)c(-c4c(F)cc(F)cc4-c4c[nH]nc4F)nc3c2)C1 [Compound 847] showed an IC50 of 3.57 nM.
Work on Cc1nn(C)cc1-c1cc(F)cc(F)c1-c1nc2cc(C(=O)N3CC4(O)CC3C4)ccn2c1Cl [Compound 814] yielded an IC50 of 3.33 nM.
O=C(NC1CC(CO)(CO)C1)c1ccn2c(Cl)c(-c3c(F)cc(F)cc3-c3cnn(C4CC4)c3F)nc2c1 [Compound 851] was tested, and the IC50 was 1.93 nM.
With Cc1nn(C)cc1-c1ccccc1-c1nc2cc(C(=O)N3C[C@@H]4[C@@H](O)[C@@H]4C3)ccn2c1Cl [Compound 647] the IC50 was 9.16 nM.
In the case of Cn1cc(-c2cccc(F)c2-c2nc3cc(C(=O)NCC45CC(CO)(CCO4)C5)ccn3c2Cl)c(F)n1 [Compound 850], the IC50 is reported as 0.31 nM.
Work on Cn1cc(-c2cccc(F)c2-c2nc3cc(C(=O)N[C@H]4CC[C@](C)(O)CC4)ccn3c2Cl)cn1 [Compound 918, 3-chloro-2-(2-fluoro-6-(1-methyl-1H-pyrazol-4-yl)phenyl)-N-((1r,4r)-4-hydroxy-4-methylcyclohexyl)imidazo[1,2-a]pyridine-7-carboxamide] yielded an IC50 of 3.48 nM.
Cc1nn(C)cc1-c1ccccc1-c1nc2cc(C(=O)N3CCc4c[nH]nc4C3)ccn2c1Cl [Compound 452] was tested, and the IC50 was 2.79 nM.
With Cc1nn(C)cc1-c1ccccc1-c1nc2cc(C(=O)N3CC(=O)N[C@@H](CO)C3)ccn2c1Cl [Compound 638] the IC50 was 25.8 nM.
For Cn1cc(-c2ccc(F)c(F)c2-c2nc3cc(C(=O)N[C@H]4C[C@@](C)(O)C4)ccn3c2Cl)c(F)n1 [Compound 916], the IC50 was 0.84 nM.
In the case of CC(C)(O)C12CC(NC(=O)c3ccn4c(F)c(-c5c(F)cccc5-c5c[nH]nc5F)nc4c3)(C1)C2 [Compound 836], the IC50 is reported as 1.1 nM.
C[C@]1(O)C[C@H](NC(=O)c2ccn3c(Cl)c(-c4ccccc4-c4cnn(C(F)F)c4Cl)nc3c2)C1 [Compound 818] showed an IC50 of 0.99 nM.
Cn1cc(-c2cccc(F)c2-c2nc3cc(C(=O)NC45CCC(CO)(C4)OC5)ccn3c2Cl)c(F)n1 (stereo not drawn) [Compound 854] was tested, and the IC50 was 1.42 nM.
In the case of Cc1nn(C)cc1-c1cc(F)ccc1-c1nc2cc(C(=O)NC34CNC(C3)C4)ccn2c1Cl [Compound 822], the IC50 is reported as 9.61 nM.
With Cc1nn(C)cc1-c1ccccc1-c1nc2cc(C(=O)N3CC[C@H](N4CCNCC4)C3)ccn2c1C (single isomer, unassigned) [Compound 481] the IC50 was 16.1 nM.
With Cc1nn(C)cc1-c1ccccc1-c1nc2cc(C(=O)NC[C@@H](C)N3CCNC3=O)ccn2c1Cl [Compound 490] the IC50 was 3.4 nM.
Compound Cn1cc(-c2cccc(F)c2-c2nc3cc(C(=O)N[C@H]4C[C@](C)(O)C4)ccn3c2Cl)c(F)n1 [Compound 828] has an IC50 of 0.3 nM.
With Cc1c(-c2ccccc2-c2cn(C)nc2C(F)(F)F)nc2cc(C(=O)N[C@@H]3CO[C@H]4[C@@H]3OC[C@H]4O)ccn12 [Compound 783] the IC50 was 3.21 nM.
CC12CC(NC(=O)c3ccn4c(Cl)c(-c5c(F)cccc5-c5cn[nH]c5)nc4c3)(C1)C2 [Compound 856] gave an IC50 of 11.8 nM.
With Cc1nn(C)cc1-c1cccc(F)c1-c1nc2cc(C(=O)N[C@H]3CO[C@H]4[C@@H]3OC[C@H]4O)ccn2c1C#N [Compound 782] the IC50 was 4.8 nM.
In the case of Cc1nn(C)cc1-c1ccccc1-c1nc2cc(C(=O)NC[C@]34C[C@](CO)(C3)C4)ccn2c1Cl [Compound 635], the IC50 is reported as 1.65 nM.
